Measured values from patent EP1779117B1, “METHODS FOR MEASURING ADAMTS13 ACTIVITY ON THE SURFACE OF PLATELETS” (American Diagnostica Inc., priority 2004, dated 2006).
Starred links: 1 amine or outer side, 2 acyl side, 3 side chain; linkers in the order of their positions; H or OH if unused. Residues, ends and D or L forms follow the SMILES beside them. *: point of attachment. EDANS = O=S(=O)(O)c1cccc2c(NCCN*)cccc12; pNA = O=[N+]([O-])c1ccc(N*)cc1; AMC = Cc1cc(=O)oc2cc(N*)ccc12; Suc = O=C(CCC(=O)[*:2])[*:1]

What was measured:
[1] = system: ADAMTS13; assay: Cleavage of peptidyl substrates by ADAMTS13 in PRP (optical density / fluorescence); format: biochemical; details: for cleavage by ADAMTS13 in PRP: normal PRP 20 µl, 10 mM Tris-HCl pH 8.0, 37° C, Ex 360 nm/ Em 460 nm
Protocol: As discussed above, Furlan et al. reported that some peptidyl-pNA moieties, such as XLY-pNA and XVY-pNA, were not substrates for ADAMTS13. We prepared LVY-pNA and tested it for its ability to be cleaved by ADAMTS 13. The results shown in Figure 2 confirm the findings of Furlan et al., i.e., LVY-pNA was not cleaved by ADAMTS13.
In order to determine the effect of modifying the length of the peptide sequence conjugated to the AMC fluorochrome, normal PRP (20 µl) was incubated at 37° C with a final concentration of 0.8 mM Suc-LLVY-AMC or LVY-AMC in 10 mM Tris-HCl pH 8.0 buffer in total volume of 200 µl. Fluorescence was measured using a microtiter fluorophotometric plate reader (Ex 360 nm/ Em 460 nm).

[2] = system: ADAMTS13 found on platelets; assay: FRET substrate cleavage by isolated platelets; format: biochemical; details: 8 µg/ml substrate, 10mM Tris-HCl pH 8.0, 37°C, Ex 360 nm/ Em 440 nm, Figure 4
Protocol: ADAMTS13 activity was measured using a fluorescent substrate attached to a donor moiety and an acceptor moiety that functions by fluorescence resonance energy transfer (FRET). The ADAMTS 13 selective substrate, NH2-Arg-Lys(DABCYL)-NLVYMVTGD(EDANS)-Arg-COOH, was used in this example. The NLVYMVTGD peptide sequence of this substrate is homologous to the ADAMTS13 cleavage site on VWF. The intact peptidyl substrate has low fluorescence, due to quenching of the […]. Cleavage of the substrate between the tyrosine and methionine of the peptide sequence results in an increase in fluorescence.
Isolated platelets in 10mM Tris-HCl pH 8.0 assay buffer were incubated with a final concentration of 8 µg/ml of the FRET substrate at 37°C. The fluorescence was measured in a spectrofluorometric plate reader (Ex 360 nm/ Em 440 nm). […] The skilled artisan can design other FRET substrates for measuring ADAMTS 13 activity using his or her own knowledge and the teachings herein.

Compound: Cc1cc(=O)oc2cc(NC(=O)[C@H](Cc3ccc(O)cc3)NC(=O)[C@@H](NC(=O)[C@@H](N)CC(C)C)C(C)C)ccc12 [LVY-AMC, Leu-Val-Tyr-AMC] (H-Leu-Val-Tyr-{AMC})
- cleavage by ADAMTS13 in PRP ([1]; 0.8 mM substrate, Figure 3): cleaved

Compound: CC(C)C[C@H](N)C(=O)N[C@H](C(=O)N[C@@H](Cc1ccc(O)cc1)C(=O)Nc1ccc([N+](=O)[O-])cc1)C(C)C [LVY-pNA] (H-Leu-Val-Tyr-pNA)
- cleavage by ADAMTS13 ([1]; LVY-pNA tested as substrate, Figure 2): not cleaved

Compound: Cc1cc(=O)oc2cc(NC(=O)[C@H](Cc3ccc(O)cc3)NC(=O)[C@@H](NC(=O)[C@H](CC(C)C)NC(=O)[C@H](CC(C)C)NC(=O)CCC(=O)O)C(C)C)ccc12 [Suc-LLVY-AMC, Suc-Leu-Leu-Val-Tyr-AMC] (Suc-LLVY-{AMC})
- cleavage by ADAMTS13 in PRP ([1]; 0.8 mM substrate, Figure 3): cleaved
- fluorescence signal over time compared to the other AMC substrate ([1]; normal PRP, 0.8 mM substrate, 37° C, Figure 3): higher signal over time

Compound: NH2-Arg-Lys-(DABCYL)- Asn-Leu- Val-Tyr-Met- Val- Thr-Gly-Asp-(EDANS)-Arg-COOH ({H2N-Arg-K(DABCYL)}-NLVYMVTGD(EDANS)R-OH; also: EDANS after Asp (on Asp side chain or between Asp and Arg))
- fluorescence on incubation with platelets (cleavage of FRET substrate) [2]: increased fluorescence over time
